These results are taken from US20130040935A1, “CYCLIC KETO-ENOLS FOR THERAPY” (BAYER INTELLECTUAL PROPERTY GMBH, priority 2010, published 2013).

Test [1] deals with acetyl-CoA carboxylase 2 (ACC2) (Homo sapiens, UniProt O00763). The test is described as follows: Human ACC2 enzyme assay, Assay A2 (HTRF ADP immunoassay). (Time-resolved FRET reads energy transfer from a long-lived donor to a nearby acceptor.)
Experimental: The inhibitory activity of the substances of this invention with regard to acetyl-CoA carboxylase 2 (ACC2) was measured using the ACC2 assay described in the paragraphs below. The basic principle of the assay is the measurement of adenosine diphosphate (ADP), which is formed as a by-product, by means of an HTRF®-based competitive immunoassay (HTRF=Homogeneous Time Resolved Fluorescence).
The amount of complex of d2-labelled ADP and europium cryptate-labelled anti-ADP antibody was then determined by measuring the resonance energy transfer of europium cryptate to d2.
The next test deals with MCF7. In words: Cell proliferation assay (CellTiter-Glo, 96 h), MCF7. It counts as cell-based. Conditions: Homo sapiens, MCF7; Table 7; 96-hour incubation. The method, boiled down: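 Tumour cells are plated overnight, a baseline luminescence plate is read, and parallel plates receive compound for 96 hours at 37° C. before CellTiter-Glo measurement. Percent inhibition uses baseline-subtracted values relative to untreated cells.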
(In ATP-based viability assays light output follows the ATP content of the culture.)

The target in test [2] is T1, human ACC1 (acetyl-coenzyme A carboxylase alpha transcript variant 1) (Homo sapiens, UniProt Q13085).
T1 construct: FLAG (C); made in house; host or cells: baculovirus-infected insect cells (Hi5)
The test is described as follows: Human ACC1 enzyme assay, Assay B1 (ADP-Glo). In kind it is biochemical.
Experimental: (§1) Essentially, the enzyme activity is measured by quantifying the adenosine diphosphate (ADP) formed as a byproduct of the enzyme reactions using the ADP-Glo™ detection system from Promega. In this test, initially the adenosine triphosphate (ATP) not consumed in the enzyme reaction is converted quantitatively with an adenylate cyclase (“ADP-GLO reagent”) into cAMP, the adenylate cyclase is then stopped and (“kinase detection reagent”) the ADP formed is subsequently converted into ATP, which is converted in a luciferase-based reaction into a glow luminescence signal.
The concentration of the hACC1 was adapted to the respective activity of the enzyme and adjusted such that the assay operated in the linear range. […] The amount of light emitted was taken as a measure for the amount of ADP formed and thus for the enzyme activity of the hACC1.

In a further test the target is recombinant human ACC1 (Homo sapiens, UniProt Q13085). The test is described as follows: Human ACC1 enzyme assay, Assay A1 (HTRF ADP immunoassay).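 Further: ADP generated by the enzyme quantified via competitive time-resolved FRET, read as europium cryptate to d2 energy transfer after 1 h at 22 °C with labelled ADP tracer and anti-ADP antibody.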
The target in test [3] is human ACC2 (acetyl-coenzyme A carboxylase 2) (Homo sapiens, UniProt O00763). In words: Human ACC2 enzyme assay, Assay B2 (ADP-Glo).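 Further: human ACC2 activity read as ADP product, detected by luciferase glow luminescence after residual ATP removal, enzyme near 2 ng/µl in linear range, detection steps at 22 °C.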 Background: In ADP-Glo the light output rises with the ADP produced.
Experimental: The hACC2-inhibitory action of the substances of the present invention was measured in the hACC2 assay described in the paragraphs below.
as §1
The concentration of the hACC2 was adapted to the respective activity of the enzyme and adjusted such that the assay operated in the linear range. Typical concentrations were in the range of 2 ng/μl. […] The amount of light emitted was taken as a measure for the amount of ADP formed and thus for the enzyme activity of the hACC2.
Setting [4] is: Assay B1, read-out: ACC 1 (=B1) IC50.

The structures appear in SMILES notation. Read-outs that look alike come from different tables or passages of the source. Where only a bound is given, the exact number is not on record here.

human ACC2 (acetyl-coenzyme A carboxylase 2), sequence (O00763 27-2458 limits assumed): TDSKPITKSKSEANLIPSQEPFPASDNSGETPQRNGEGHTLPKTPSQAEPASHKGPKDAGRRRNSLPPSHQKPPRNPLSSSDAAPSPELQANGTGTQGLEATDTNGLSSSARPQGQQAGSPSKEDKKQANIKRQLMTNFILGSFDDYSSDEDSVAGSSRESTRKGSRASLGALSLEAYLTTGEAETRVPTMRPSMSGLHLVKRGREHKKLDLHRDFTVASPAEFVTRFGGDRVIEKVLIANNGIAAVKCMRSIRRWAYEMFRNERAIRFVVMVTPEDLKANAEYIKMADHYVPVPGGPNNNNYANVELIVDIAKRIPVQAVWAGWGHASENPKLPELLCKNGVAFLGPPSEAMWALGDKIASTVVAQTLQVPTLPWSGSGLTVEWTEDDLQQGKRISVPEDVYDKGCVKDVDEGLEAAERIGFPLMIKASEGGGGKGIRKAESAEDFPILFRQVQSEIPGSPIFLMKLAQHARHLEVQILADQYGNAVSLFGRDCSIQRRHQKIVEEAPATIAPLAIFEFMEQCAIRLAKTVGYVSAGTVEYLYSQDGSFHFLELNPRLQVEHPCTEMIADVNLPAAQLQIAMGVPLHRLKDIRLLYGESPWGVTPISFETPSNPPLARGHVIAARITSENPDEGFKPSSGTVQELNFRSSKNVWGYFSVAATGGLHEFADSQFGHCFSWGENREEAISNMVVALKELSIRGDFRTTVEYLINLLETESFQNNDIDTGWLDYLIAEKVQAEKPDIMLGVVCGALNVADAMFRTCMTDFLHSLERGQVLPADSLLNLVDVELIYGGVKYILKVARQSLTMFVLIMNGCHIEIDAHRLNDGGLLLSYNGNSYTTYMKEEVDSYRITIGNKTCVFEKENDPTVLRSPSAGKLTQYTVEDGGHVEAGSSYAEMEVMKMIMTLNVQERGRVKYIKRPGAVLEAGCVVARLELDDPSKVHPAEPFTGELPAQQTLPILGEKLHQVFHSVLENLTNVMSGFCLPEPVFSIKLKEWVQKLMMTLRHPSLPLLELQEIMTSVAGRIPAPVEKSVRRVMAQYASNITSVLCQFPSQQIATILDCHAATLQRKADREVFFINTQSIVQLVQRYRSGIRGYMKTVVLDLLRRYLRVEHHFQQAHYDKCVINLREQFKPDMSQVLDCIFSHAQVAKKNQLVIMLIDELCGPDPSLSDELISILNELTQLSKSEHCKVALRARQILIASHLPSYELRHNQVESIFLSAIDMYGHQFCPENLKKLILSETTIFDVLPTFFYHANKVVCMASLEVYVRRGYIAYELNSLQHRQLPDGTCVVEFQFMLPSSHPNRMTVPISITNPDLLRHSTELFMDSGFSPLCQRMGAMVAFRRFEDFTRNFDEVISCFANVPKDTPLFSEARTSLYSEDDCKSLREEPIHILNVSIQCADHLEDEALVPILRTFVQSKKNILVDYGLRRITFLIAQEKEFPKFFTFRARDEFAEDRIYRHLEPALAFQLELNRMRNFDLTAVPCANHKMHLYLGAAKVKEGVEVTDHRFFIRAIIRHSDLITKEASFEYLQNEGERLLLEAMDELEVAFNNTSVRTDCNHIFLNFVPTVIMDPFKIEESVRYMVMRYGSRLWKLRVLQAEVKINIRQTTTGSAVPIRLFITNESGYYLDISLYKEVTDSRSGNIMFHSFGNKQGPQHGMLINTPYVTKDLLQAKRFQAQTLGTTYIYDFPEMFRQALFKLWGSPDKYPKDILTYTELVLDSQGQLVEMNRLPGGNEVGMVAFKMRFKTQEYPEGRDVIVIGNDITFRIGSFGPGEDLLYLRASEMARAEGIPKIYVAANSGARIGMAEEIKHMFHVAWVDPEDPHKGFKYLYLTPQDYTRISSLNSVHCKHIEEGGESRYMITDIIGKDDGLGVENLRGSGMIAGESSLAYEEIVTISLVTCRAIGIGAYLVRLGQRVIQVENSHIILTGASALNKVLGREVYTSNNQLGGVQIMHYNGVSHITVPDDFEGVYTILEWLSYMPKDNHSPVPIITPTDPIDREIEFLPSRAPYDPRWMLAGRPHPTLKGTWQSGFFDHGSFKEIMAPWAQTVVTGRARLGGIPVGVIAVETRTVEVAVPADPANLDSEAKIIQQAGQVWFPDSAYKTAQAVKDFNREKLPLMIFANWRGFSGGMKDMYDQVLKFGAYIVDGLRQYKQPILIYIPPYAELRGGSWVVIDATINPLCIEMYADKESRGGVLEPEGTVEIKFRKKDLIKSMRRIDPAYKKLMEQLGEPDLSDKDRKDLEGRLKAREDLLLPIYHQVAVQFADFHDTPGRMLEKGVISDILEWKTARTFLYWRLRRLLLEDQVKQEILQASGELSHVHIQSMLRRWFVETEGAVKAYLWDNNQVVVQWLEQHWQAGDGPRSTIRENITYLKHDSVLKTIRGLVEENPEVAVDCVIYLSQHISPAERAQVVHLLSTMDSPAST
acetyl-CoA carboxylase 2 (ACC2), sequence (O00763 39-2458 limits assumed): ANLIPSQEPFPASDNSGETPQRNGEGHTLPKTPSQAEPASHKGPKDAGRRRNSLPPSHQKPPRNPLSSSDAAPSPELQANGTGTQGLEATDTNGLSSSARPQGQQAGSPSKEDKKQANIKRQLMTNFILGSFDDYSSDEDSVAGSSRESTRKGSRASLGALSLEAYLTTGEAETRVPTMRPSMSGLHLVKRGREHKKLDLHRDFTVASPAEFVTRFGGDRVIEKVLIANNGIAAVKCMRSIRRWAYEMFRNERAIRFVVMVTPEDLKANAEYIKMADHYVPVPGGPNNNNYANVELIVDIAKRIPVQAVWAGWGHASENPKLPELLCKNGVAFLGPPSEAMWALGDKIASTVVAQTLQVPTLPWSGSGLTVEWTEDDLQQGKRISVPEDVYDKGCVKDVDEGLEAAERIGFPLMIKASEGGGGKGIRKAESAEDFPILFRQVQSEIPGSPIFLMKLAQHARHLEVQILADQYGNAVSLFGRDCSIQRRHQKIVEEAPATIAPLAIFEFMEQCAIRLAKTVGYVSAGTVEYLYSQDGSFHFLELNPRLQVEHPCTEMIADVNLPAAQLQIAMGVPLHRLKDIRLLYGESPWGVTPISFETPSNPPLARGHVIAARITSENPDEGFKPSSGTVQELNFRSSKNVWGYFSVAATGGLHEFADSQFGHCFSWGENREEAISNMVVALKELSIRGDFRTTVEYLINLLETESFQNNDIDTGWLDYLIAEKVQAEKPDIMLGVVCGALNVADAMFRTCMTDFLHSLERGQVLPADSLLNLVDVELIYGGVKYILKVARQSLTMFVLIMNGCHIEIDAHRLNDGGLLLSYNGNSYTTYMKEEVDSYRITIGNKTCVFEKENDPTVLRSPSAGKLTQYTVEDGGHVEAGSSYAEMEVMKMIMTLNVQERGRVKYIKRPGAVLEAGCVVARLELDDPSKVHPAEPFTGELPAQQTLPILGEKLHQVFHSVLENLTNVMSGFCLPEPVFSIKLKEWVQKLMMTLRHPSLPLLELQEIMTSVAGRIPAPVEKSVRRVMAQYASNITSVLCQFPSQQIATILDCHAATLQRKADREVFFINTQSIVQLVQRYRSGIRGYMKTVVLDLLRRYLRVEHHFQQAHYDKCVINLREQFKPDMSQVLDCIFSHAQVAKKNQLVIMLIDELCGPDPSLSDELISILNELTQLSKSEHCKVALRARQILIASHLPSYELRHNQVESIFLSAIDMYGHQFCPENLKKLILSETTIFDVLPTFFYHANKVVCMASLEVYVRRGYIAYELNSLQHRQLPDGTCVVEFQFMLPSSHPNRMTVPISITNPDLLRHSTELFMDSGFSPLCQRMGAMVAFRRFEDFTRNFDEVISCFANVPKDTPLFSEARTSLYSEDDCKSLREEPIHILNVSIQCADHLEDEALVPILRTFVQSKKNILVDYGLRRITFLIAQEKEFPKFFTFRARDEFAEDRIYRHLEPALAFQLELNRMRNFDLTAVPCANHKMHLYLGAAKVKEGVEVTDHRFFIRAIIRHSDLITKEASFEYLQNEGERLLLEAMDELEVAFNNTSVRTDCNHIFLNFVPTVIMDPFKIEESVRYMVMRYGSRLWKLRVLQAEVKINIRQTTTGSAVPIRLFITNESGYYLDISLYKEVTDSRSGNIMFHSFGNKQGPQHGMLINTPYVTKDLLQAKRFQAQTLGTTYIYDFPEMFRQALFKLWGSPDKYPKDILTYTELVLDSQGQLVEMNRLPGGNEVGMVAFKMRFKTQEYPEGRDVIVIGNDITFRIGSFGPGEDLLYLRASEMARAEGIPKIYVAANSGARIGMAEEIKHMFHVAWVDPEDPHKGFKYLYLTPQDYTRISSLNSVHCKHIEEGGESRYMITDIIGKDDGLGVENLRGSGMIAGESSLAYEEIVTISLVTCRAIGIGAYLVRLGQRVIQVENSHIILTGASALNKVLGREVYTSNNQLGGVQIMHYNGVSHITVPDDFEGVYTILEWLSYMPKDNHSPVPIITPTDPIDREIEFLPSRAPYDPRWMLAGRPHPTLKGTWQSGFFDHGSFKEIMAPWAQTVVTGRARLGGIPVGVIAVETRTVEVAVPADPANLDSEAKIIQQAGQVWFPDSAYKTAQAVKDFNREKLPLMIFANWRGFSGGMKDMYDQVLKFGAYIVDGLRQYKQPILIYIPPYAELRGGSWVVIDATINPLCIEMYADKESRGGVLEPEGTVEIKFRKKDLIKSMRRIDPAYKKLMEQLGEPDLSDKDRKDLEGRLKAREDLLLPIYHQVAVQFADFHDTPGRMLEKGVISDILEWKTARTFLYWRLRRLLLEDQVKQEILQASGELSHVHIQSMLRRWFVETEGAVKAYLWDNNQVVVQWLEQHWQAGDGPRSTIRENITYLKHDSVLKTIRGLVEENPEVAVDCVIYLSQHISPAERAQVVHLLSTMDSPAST

In the case of `CO[C@H]1CC[C@]2(CC1)NC(=O)C(c1cc(-c3ccc(Cl)c(F)c3)ccc1Cl)=C2O` [1-103, (5s,8s)-3-(4,4′-Dichloro-3′-fluorobiphenyl-3-yl)-4-hydroxy-8-methoxy-1-azaspiro[4.5]dec-3-en-2-one], the IC50 in test [1] was 1180 nM; with MCF7, 119 nM; in test [2], 102 nM; on recombinant human ACC1, 151 nM; in test [3], 4260 nM.
Regarding `CO[C@H]1CC[C@]2(CC1)NC(=O)C(c1cc(-c3ccc(F)c(F)c3)ccc1Cl)=C2O` [1-104, (5s,8s)-3-(4 Chloro-3′,4′-difluorobiphenyl-3-yl)-4-hydroxy-8-methoxy-1-azaspiro[4.5]dec-3-en-2-one], the IC50 in test [1] was 17900 nM; with MCF7 it was 455 nM; in test [2], 270 nM; on recombinant human ACC1, 329 nM; in test [3], greater than 20000 nM.
In the same order, the values of `CO[C@H]1CC[C@]2(CC1)NC(=O)C(c1cc(-c3ccc(Cl)c(F)c3)cc(F)c1C)=C2O` [1-105, (5s,8s)-3-(4′-Chloro-3′,5-difluoro-4-methylbiphenyl-3-yl)-4-hydroxy-8-methoxy-1-azaspiro[4.5]dec-3-en-2-one] are 5560 nM, 106 nM, 165 nM, 360 nM and 8940 nM.
On to `CO[C@H]1CC[C@]2(CC1)NC(=O)C(c1cc(-c3ccc(Cl)cc3)cc(F)c1C)=C2O` [1-106, (5s,8s)-3-(4′-Chloro 5 fluoro 4-methylbiphenyl-3-yl)-4-hydroxy-8-methoxy-1-azaspiro[4.5]dec-3-en-2-one], for which the 50% inhibitory concentration (IC50) was 4360 nM in test [1]; 155 nM in the test with MCF7; 207 nM in test [2]; 439 nM on recombinant human ACC1; 5850 nM in test [3].
In the same order, the values of `CO[C@H]1CC[C@]2(CC1)NC(=O)C(c1cc(-c3ccc(F)c(F)c3)cc(F)c1C)=C2O` [1-107, (5s,8s)-4-Hydroxy-8-methoxy-3-(3′,4′,5-trifluoro-4-methylbiphenyl-3-yl)-1-azaspiro[4.5]dec-3-en 2-one] are greater than 20000 nM, 267 nM, 376 nM, 804 nM and greater than 20000 nM.
Take `CO[C@H]1CC[C@]2(CC1)NC(=O)C(c1cc(-c3ccc(Cl)c(F)c3)c(Cl)cc1C)=C2O` [1-108, (5s,8s)-3-(4′,6-Dichloro-3′-fluoro-4-methylbiphenyl-3-yl)-4-hydroxy-8-methoxy-1-azaspiro[4.5]dec-3-en-2-one]: the IC50 stood at 346 nM in test [1]; 76 nM in the test with MCF7; 204 nM in test [2]; 460 nM at recombinant human ACC1; 753 nM in test [3].
In the same order, the values of `CO[C@H]1CC[C@]2(CC1)NC(=O)C(c1cc(-c3ccc(Cl)cc3)c(Cl)cc1C)=C2O` [1-109, (5s,8s)-3-(4′,6-Dichloro-4-methylbiphenyl-3-yl)-4-hydroxy-8-methoxy-1-azaspiro[4.5]dec-3-en-2-one] are 103 nM, 37 nM, 293 nM, 800 nM and 394 nM.
Regarding `Cc1ccc(-c2ccc(Cl)c(F)c2)cc1C1=C(O)[C@]2(CC[C@H](C)CC2)NC1=O` [1-110, (5s,8s)-3-(4′-Chloro-3′-fluoro-4-methylbiphenyl-3-yl)-4-hydroxy-8-methyl-1-azaspiro[4.5]dec-3-en-2-one], the IC50 in test [1] amounted to 640 nM; in the test with MCF7, 45 nM; in test [2] (setting [4]), 80 nM; at recombinant human ACC1, 194 nM; in test [3], 488 nM.
In the same order, the values of `COC[C@H]1CC[C@]2(CC1)NC(=O)C(c1cc(-c3ccc(Cl)c(F)c3)ccc1C)=C2O` [1-111, (5s,8s)-3-(4′-Chloro-3′-fluoro-4-methylbiphenyl-3-yl)-4-hydroxy-8-(methoxymethyl)-1-azaspiro[4.5]dec-3-en-2-one] are 592 nM, 194 nM, 126 nM, 177 nM and 1120 nM.
On to `COC[C@H]1CC[C@]2(CC1)NC(=O)C(c1cc(-c3ccc(Cl)c(F)c3)ccc1Cl)=C2O` [1-113, (5s,8s)-3-(4,4′-Dichloro-3′-fluorobiphenyl-3-yl)-4-hydroxy-8-(methoxymethyl)-1-azaspiro[4.5]dec-3-en-2-one], for which the IC50 in test [1] stood at 1350 nM; in the test on MCF7 it was 46 nM; in test [2], 101 nM; on recombinant human ACC1, 260 nM; in test [3], 2710 nM.
For `COCC[C@H]1CC[C@]2(CC1)NC(=O)C(c1cc(-c3ccc(Cl)c(F)c3)ccc1C)=C2O` [1-114, (5s,8s)-3-(4′-Chloro-3′-fluoro-4-methylbiphenyl-3-yl)-4-hydroxy-8-(2-methoxyethyl)-1-azaspiro[4.5]dec-3-en-2-one], the half-maximal inhibitory concentration (IC50) in test [1] stood at 2210 nM; in the test with MCF7 it was 43 nM; in test [2] (setting [4]), 113 nM; at recombinant human ACC1, 236 nM; in test [3] it was 1640 nM.
Turning to `Cc1ccc(-c2ccc(F)c(F)c2)cc1C1=C(O)C2(CCCCC2)NC1=O` [1-115, 3-(3′,4′-Difluoro-4-methylbiphenyl-3-yl)-4-hydroxy-1-azaspiro[4.5]dec-3-en-2-one], the IC50 in test [1] was found to be 5040 nM; in the test with MCF7, 98 nM; in test [2], 196 nM; on recombinant human ACC1, 314 nM; in test [3], 10300 nM.
Regarding `COC[C@H]1CC[C@]2(CC1)NC(=O)C(c1cc(-c3ccc(Cl)cc3)ccc1C)=C2O` [1-116, (5s,8s)-3-(4′-Chloro-4 methylbiphenyl-3-yl)-4-hydroxy-8-(methoxymethyl)-1-azaspiro[4.5]dec-3-en-2-one], the IC50 in test [1] came out at 280 nM; with MCF7, 31 nM; in test [2] (setting [4]), 92 nM; at recombinant human ACC1 it was 232 nM; in test [3], 591 nM.
On to `Cc1ccc(-c2ccc(Cl)cc2)cc1C1=C(O)[C@]2(CC[C@H](CO)CC2)NC1=O` [1-117, (5s,8s)-3-(4′-Chloro-4 methylbiphenyl-3-yl)-4-hydroxy-8-(hydroxymethyl)-1-azaspiro[4.5]dec-3-en-2-one], for which the IC50 in test [1] came to 812 nM; with MCF7 it was 64 nM; in test [2], 194 nM; on recombinant human ACC1, 232 nM; in test [3], 4110 nM.
With `Cc1ccc(-c2ccc(Cl)cc2)cc1C1=C(O)[C@]2(CC[C@H](C(F)(F)F)CC2)NC1=O` [1-119, (5s,8s)-3-(4′-Chloro-4 methylbiphenyl-3-yl)-4-hydroxy-8-(trifluoromethyl)-1-azaspiro[4.5]dec-3-en-2-one], the 50% inhibitory concentration (IC50) worked out at 479 nM in test [1]; 37 nM in the test on MCF7; 110 nM in test [2] (setting [4]); 203 nM at recombinant human ACC1; 1080 nM in test [3].
For `Cc1ccc(-c2ccc(Cl)cc2)cc1C1=C(O)[C@]2(CC[C@](O)(C(F)(F)F)CC2)NC1=O` [1-122, (5r,8r)-3-(4′-Chloro-4-methylbiphenyl-3-yl)-4,8-dihydroxy-8-(trifluoromethyl)-1-azaspiro[4.5]dec-3-en-2-one], the IC50 is 5420 nM in test [1]; 288 nM with MCF7; 124 nM in test [2] (setting [4]); 98 nM at recombinant human ACC1; 6590 nM in test [3].
Regarding `Cc1ccc(-c2ccc(Cl)c(F)c2)cc1C1=C(O)[C@]2(CC[C@](O)(C(F)(F)F)CC2)NC1=O` [1-123, (5r,8r)-3-(4′-Chloro-3′-fluoro-4-methylbiphenyl-3-yl)-4,8-dihydroxy-8-(trifluoromethyl)-1-azaspiro[4.5]dec-3-en-2-one], the IC50 in test [1] was found to be 3440 nM; in the test with MCF7, 309 nM; in test [2] (setting [4]), 562 nM; on recombinant human ACC1, 173 nM; in test [3], 11200 nM.
Regarding `Cc1ccc(-c2ccc(F)c(F)c2)cc1C1=C(O)[C@]2(CC[C@](O)(C(F)(F)F)CC2)NC1=O` [1-124, (5r,8r)-3-(3′,4′-Difluoro-4-methylbiphenyl-3-yl)-4,8-dihydroxy-8-(trifluoromethyl)-1-azaspiro[4.5]dec-3-en-2-one], the IC50 is greater than 20000 nM in test [1]; 1700 nM with MCF7; 467 nM in test [2] (setting [4]); 458 nM on recombinant human ACC1; greater than 20000 nM in test [3].
Consider `Cc1ccc(-c2ccc(Cl)cc2)c(C)c1C1=C(O)[C@]2(CC[C@](O)(C(F)(F)F)CC2)NC1=O` [1-125, (5r,8r)-3-(4′-Chloro-2,4-dimethylbiphenyl-3-yl)-4,8-dihydroxy-8-(trifluoromethyl)-1-azaspiro[4.5]dec-3-en-2-one], for which the concentration for half-maximal inhibition (IC50) in test [1] came out at 3990 nM; in the test with MCF7 it was 322 nM; in test [2] (setting [4]), 217 nM; at recombinant human ACC1 it was 281 nM; in test [3], 6770 nM.
In the same order, the values of `Cc1ccc(-c2ccc(Cl)c(F)c2)c(C)c1C1=C(O)[C@]2(CC[C@](O)(C(F)(F)F)CC2)NC1=O` [1-126, (5r,8r)-3-(4′-Chloro-3′-fluoro-2,4-dimethylbiphenyl-3-yl)-4,8-dihydroxy-8-(trifluoromethyl)-1-azaspiro[4.5]dec-3-en-2-one] are 6370 nM, 594 nM, 204 nM, 300 nM and 12400 nM.

One may read the IC50 as the concentration that inhibits the measured activity by half.
